# Patent publication US20250115578A1, “AROMATIC FUSED RING NAV1.8 INHIBITOR, AND USE THEREOF” (CHENGDU KANGHONG PHARMACEUTICAL CO., LTD., priority 2022, published 2025)
# Assays:
# [1] = system: postoperative pain model in rats; experiment: Efficacy test in postoperative pain model in rats (mechanical allodynia, PWT); assay type: in vivo, Sprague-Dawley male rats; conditions: single oral 30 mg/kg; for Inhibition of mechanical hyperalgesia induced by postoperative pain model: at 1 h, 2 h and 4 h after administration
# Protocol: Sprague-Dawley male rats, purchased from Zhejiang Vital River Laboratory Animal Technology Co., LTD
# Compounds of the example 10, 14, 16, 31 of the invention were weighted and prepared into solutions of 3 mg/mL using 5% DMSO (Anhui Senrise Technologies Co., Ltd)+30% Solutol HS15 (Beijing Ouhe Technology Co., LTD.)+65% water for injection, and administered at a volume of 10 mL/kg by gavage. The dosage was 30 mg/kg.
# Animals were anesthetized with Zoletil 50+ Xylazine Hydrochloride (20 mg/kg+8 mg/kg, intraperitoneally injected). The surgical area on the plantar skin of the left hind paw was disinfected three times with iodophor and 70% ethanol, and the surgery was started after the skin was dry.
# A longitudinal incision about 1 cm was made towards the toes starting from 0.5 cm away from the heel of the left hind paw. After the skin was incised, the flexor digitorum brevis was raised and longitudinal blunt injury was caused. After hemostasis by pressing, the wound was sutured. After surgery, animals were placed on an electric warm pad and 5 mL of physiological saline was injected subcutaneously to prevent dehydration. 24 h after modeling, all animals (including the normal control group) were tested for base mechanical allodynia (PWT). The modeling animals without mechanical hypersensitivity (PWT greater than 5 g) were excluded and […] were selected and randomly divided into 5 groups, with 9 animals in each group except 5 in the normal group (negative control group).
# The animals were weighed and administered orally at a volume of 10 mL/kg. Except normal control animals, other animals were given a single dose of compounds, and mechanical allodynia was performed by test fibers on all groups of animals at 1 h, 2 h and 4 h after dosing. The rats were placed individually in a plexiglass box with a grid at the bottom to ensure that the paws of the rats could be tested. The rats would acclimate for 15 minutes before the test. After the acclimation was completed, the test fibers were used to test on the plantar center of the rat's left hind paw. Pressed the test fiber vertically against the skin and applied force to bend the fiber for 6 to 8 seconds, with 5 second intervals between each test. The rapid withdrawal of the animal's paws during the test was recorded as a pain response. The animal's paw withdrawal when the fibers left the animal's skin was also recorded as a pain response. If the animal moves or walks around, it's not recorded as a pain response, and the test should be repeated.
# Mechanical hyperalgesia was expressed as the paw withdrawal threshold (PWT) in the rat behavioral test, which was calculated according to the following formula:
# 50% response threshold (g)=(10^(Xf+kδ)/10,000 • Xf=final test fiber value used in the test • k=table value (Chaplan et al. 1994, page 62) • δ=mean deviation
# Data were collected with excel software and analyzed with Prism 7.0 (Graph pad software, Inc.) software by two-way ANOVA followed by Dunnett multiple comparison test.
# [2] = Assay of kinetic solubility; assay type: physicochemical; conditions: aqueous buffer, kinetic from dmso stock, pH 3.5 phosphate buffer, 25° C.
# Protocol: The stock solutions of the test compound and the standard progesterone were prepared in DMSO at the concentration of 10 mM.
# 30 μL of stock solutions at 10 mM of the test compounds and standard substance were placed in order into their proper 96-well plate. 970 μL phosphate buffer at the specified pH was added to the proper vial of the sample plate. The assay was performed in duplicate. A stirring stick was added to each vial and the teflon/silicone plug was capped. The sample tray was then placed in the Eppendorf Thermomixer Comfort and shaken at 1100 RPM at 25° C. for 2 hours. After 2 hours, plugs were removed, a big magnet was used to remove the stirring sticks, and samples were transferred from the sample plate to the filter plate. Vacuum pump was used to create negative pressure and filtered the samples. Transferred 5 μL of the filtrate to the new sample plate, then added 5 μL DMSO and 490 μL water/acetonitrile (V/V=1/1) to dilute the solvent. The dilution factor may be adjusted according to the solubility values of the substances to be tested or the strength of its LC-MS signal response.
# From the 10 mM DMSO stock solution, 15 μL of that was transferred into the empty plate and 485 μL DMSO was added to prepare a 300 μM standard solution. From the 300 μM standard solution plate, 5 μL of that was transferred to another empty plate and 5 μL phosphate buffer at specified pH and 490 μL water/acetonitrile (V/V=1/1) dilution solvent were added to the standard solution to get a final concentration of 3 μM. The concentration of the standard solution may be adjusted according to the strength of its LC-MS signal response.
# The sample plate was placed into the sample tray of the automatic sampler and the samples were evaluated by LC-MS/MS analysis.
# All calculations were carried out by Microsoft Excel.
# The sample filtrate was analyzed and quantified against a standard of known concentrations using LC-MS spectral peaks to identify and quantify. The solubility values of the control drug and the compounds to be tested were calculated as the following formula: • [Sample]: concentration of the sample • AREASample: peak area of the sample • INJ VOLStd: standard sample injection volume • DFSample: sample dilution factor • [STD]: standard substance concentration • AREAStd: peak area of standard substance • INJ VOLSample: sample injection volume
Structure (SMILES),Inhibition of mechanical hyperalgesia induced by postoperative pain model [1],Efficacy compared with example compound 31 ([1]; at 1 h and 4 h after administration),solubility kinetic at 2 h [2] [µM],Efficacy compared with example compound 31 ([1]; after 1 h of administration)
"NS(=O)(=O)c1cc(NC(=O)c2cc3ccccc3nc2N2CCCC(F)(F)CC2)ccn1 [Example 14, 2-(4,4-difluoroazepan-1-yl)-N-(2-sulfamoylpyridine-4-yl) quinoline-3-carboxamide]",inhibited mechanical hyperalgesia,significantly stronger than that of example compound 31,271,
"NC(=O)c1cc(NC(=O)c2cc3cc(F)c(F)cc3nc2N2CCCC(F)(F)CC2)ccn1 [Example 10, N-(2-carbamoylpyridin-4-yl)-2-(4,4-difluoroazepan-1-yl)-6,7-difluoroquinoline-3-carboxamide]",inhibited mechanical hyperalgesia,,,
"NC(=O)c1cc(NC(=O)c2cc3ccccc3nc2N2CCCC(F)(F)CC2)ccn1 [Example 08, N-(2-carbamoylpyridin-4-yl)-2-(4,4-difluoroazepan-1-yl)quinoline-3-carboxamide]",,,175,
"NS(=O)(=O)c1cccc(NC(=O)c2cc3cc(F)c(F)cc3nc2N2CCCC(F)(F)CC2)c1 [Example 16, 2-(4,4-difluoroazepan-1-yl)-6,7-difluoro-N-(3-sulfamoylphenyl) quinoline-3-carboxamide]",inhibited mechanical hyperalgesia,,,significantly more effective than example compound 31
"NC(=O)c1cc(NC(=O)c2nc3ccccc3nc2N2CCCC(F)(F)CC2)ccc1F [Example 02, N-(3-carbamoyl-4-fluorophenyl)-3-(4,4-difluoroazepan-1-yl)quinoxaline-2-carboxamide]",,,2.8,
"NC(=O)c1cc(NC(=O)c2nc3ccccc3nc2N2CCCC(F)(F)CC2)ccn1 [Example 05, N-(2-carbamoylpyridin-4-yl)-3-(4,4-difluoroazepan-1-yl)quinoxaline-2-carboxamide]",,,0.39,
